Here are results for 17 compounds from patent publication US8207167B2, “Aryl-phenyl-sulfonamide-phenylene compounds and their use” (PIMCO 2664 Limited, priority 2008, dated 2012).

One data set relates to J774 macrophages. Description: Alamar Blue macrophage J774 viability assay. The format is cell-based. To be noted: 72 hours culture with compound, Alamar Blue read-out. As to the method: (§1) Initial screening of candidate compounds was performed using in vitro assays to determine potency, metabolic stability and solubility in biologically relevant fluids. Potency was assessed using a viability assay based on the survival of the J774 macrophage cell line. Macrophages are closely related to osteoclasts and have been used previously as a model system for osteoclast survival (see, e.g., Luckman et al., 1998). Like osteoclasts, J774 macrophages are dependent on continued NFκB activation for survival, thereby providing a valuable screen for compounds with anti-inflammatory activity. Metabolic stability was measured by determining the rate of disappearance of compound in the presence of human liver microsomal preparations, as quantified by LC-MS/MS. Solubility was measured by equilibration of the compound in fasted state simulated intestinal fluid (FaSSIF) and quantified by HPLC.
In vitro potency as anti-inflammatory agents was determined for a number of APSAP compounds by incubation with J774 macrophages and subsequent determination of cell viability.
J774 cells were plated at 10^4 cells per well in 100 μL αMEM (α Modified Eagle Medium) in 96-well plates and grown overnight. The next day, test compounds were added to the cultures, and cultures were continued for another 72 hours. At the end of the culture period, cell survival was determined using an Alamar Blue assay as previously described (see, e.g., Nociari et al., 1998).
Alamar Blue is an oxidation-reduction sensitive indicator. The dye itself is in the oxidised state, which is blue and non-fluorescent. The dye can accept electrons from reducing species, such as NADPH and FADH, to form a reduced dye species, which is red and fluorescent. Thus the transformation from oxidised form to reduced form can be measured by fluorimetric or colourimetric means. For fluorescence measurements, 530-560 nm excitation and 590 nm emission wavelengths are typically used. For colourimetric measurements, absorbance at 570 nm (reduced form) and 600 nm (oxidised form) is typically measured. A simple calculation is performed to determine the relative quantities of the two species.
A high ratio of the reducing species, NADPH and FADH, to the corresponding oxidised species, NADP and FAD, is an indicator that cells are proliferating and viable. A low ratio indicates cells that are quiescent or non-viable.
Briefly, Alamar Blue (Biosource International) was added undiluted to each well (1:10 v/v, 10 μL). The plate was incubated at 37° C. for 3-4 hours and the fluorescence was measured at 590 nm, with a 25 nm bandwidth. A high reading indicated cells with normal viability, and a low reading indicated cells that have been damaged and are no longer proliferating normally. The controls gave a high fluorescence reading, indicating a high number of live, healthy cells. A potent test compound gave a low fluorescence reading.
The average results for each test compound (n=5) were expressed as a percent (%) of the average control value.
Addition of Compounds. All of the compounds studied were made up as 100 mM solutions in DMSO. These stock solutions were then diluted 1000-10000× in culture medium (αMEM). From these 100 μM or 10 μM solutions, convenient quantities (3-33 μL) were added directly to the wells so as to give the desired final compound concentration.

Data set [1] in a line: Thermodynamic aqueous solubility in fasted state simulated intestinal fluid (FaSSIF). The format is physicochemical. The settings on record: 25° C., 24 hours equilibration, HPLC; for solubility at 24 h: pH 6.5, thermodynamic from solid. As to the method: as §1
Thermodynamic aqueous solubility was measured by equilibration of a number of APSAP compounds, in the solid state, with fasted state simulated intestinal fluid (FaSSIF) and quantified by HPLC. Measurement of solubility in FaSSIF provides a valuable model for the prediction of drug dissolution following oral administration.
Preparation of blank FaSSIF: NaOH pellets (174 mg), NaH2PO4.2H2O (2.235 g), and NaCl (3.093 g) were dissolved in 500 mL of water. The pH was adjusted to 6.5 using 1 M NaOH solution.
Preparation of FaSSIF: Sodium taurocholate (165 mg) was dissolved in 25 mL blank FaSSIF. 0.6 mL of a solution containing 100 mg/mL lecithin in methylene chloride was added. The methylene chloride was eliminated under vacuum at about 40° C. The vacuum was drawn for 15 minutes at 250 mbar, followed by 15 minutes at 100 mbar. […] After cooling to room temperature, the solution was then adjusted to 100 mL with blank FaSSIF.
The suspension was equilibrated at 25° C. for 24 hours, and then the pH was measured. The suspension was then filtered through a glass fibre C filter into a 96-well plate. The filtrate was then diluted by a factor of 100. Quantification was made by HPLC with reference to a standard solution of compound at approximately 0.1 mg/mL in DMSO. Different volumes of the standard, diluted and undiluted sample solutions were injected. The solubility was calculated using the peak areas determined by integration of the peak found at the same retention time as the principal peak in the standard injection. Analysis was performed on an Agilent HP1100 series system equipped with a diode array detector and using ChemStation software vB.02.01-SR1.

The nature of data set [2]: Human liver microsomal stability assay. The format is in vitro ADME. The settings on record: pooled human liver microsomes 0.5 mg/mL, test compound 3 μM, 45 minute incubation, NADPH; for half-life at 3 μM: both sexes, pH 7.4. As to the method: as §1
Metabolic stability of APSAP derivatives was measured by determination of the rate of compound disappearance when incubated in the presence of human liver microsomes. Liver microsomes are prepared from the endoplasmic reticulum of hepatocytes and are the primary source of the most important enzymes (cytochrome P450) involved in drug metabolism. Study of drug stability in the presence of liver microsomes is accepted as a valuable model permitting rapid prediction of in vivo drug stability.
Human liver microsomes were obtained from a commercial source. Test compounds (3 μM) were incubated with pooled liver microsomes (male and female). Samples were incubated for a 45 minute period and removed at 5 time points and test compounds were analysed by LC-MS/MS.
The final incubation volume was 25 μL. A control incubation was included for each compound tested, where 0.1 M phosphate buffer pH 7.4 was added instead of NADPH. The control compounds testosterone and 7-hydroxycoumarin were included in each experiment and all incubations were performed singularly for each compound.
Each compound was incubated for 0, 5, 15, 30, and 45 minutes. The control (minus NADPH) was incubated for 45 minutes only. The reactions were stopped by the addition of 50 μL methanol containing internal standard at the appropriate time points. The incubation plates were centrifuged at 2500 rpm for 20 minutes at 4° C. to precipitate the protein.
Following protein precipitation, the sample supernatants were combined in cassettes of up to 4 compounds and analysed using standard LC-MS/MS conditions.
From a plot of the natural logarithm of the peak area ratio (i.e., the ratio of compound peak area:internal standard peak area) against time, the gradient of the line was determined. Subsequently, half-life and intrinsic clearance were calculated using the equations below: Eliminated rate constant(k)=(−gradient). […] Intrinsic Clearance(CLint)([…])=(V×0.693)/t1/2. wherein V=Incubation volume(μL/mg microsomal protein). Pharmacokinetics Studies

Setting [3] is: fasted state simulated intestinal fluid (FaSSIF).

In brackets after ≈: the same amount, converted by molar mass.

For the compound `O=S(=O)(Nc1cccc(CO)c1)c1ccc(-c2ccc(F)cc2F)cc1` [ABD456, 2′,4′-difluoro-biphenyl-4-sulfonic acid (3-hydroxymethyl-phenyl)-amide, reference compound], the IC50 in the data set with J774 macrophages (Mus musculus) was 250 nM. Besides, the solubility at 24 h in data set [1] was 50 µg/mL (≈ 133 µM).

As for `O=S(=O)(Nc1ccc(CO)cc1)c1ccc(-c2ccc(F)cc2F)cc1` [ABD466, 2′,4′-difluoro-biphenyl-4-sulfonic acid (4-hydroxymethyl-phenyl)-amide, reference compound], in the data set on J774 macrophages (Mus musculus), the IC50 amounted to 3000 nM. For the same compound, the half-life at 3 μM in data set [2] came out at 2 min. The same compound registered a solubility at 24 h in data set [1] of 40 µg/mL (≈ 107 µM). The compound `Cc1c(CO)cccc1NS(=O)(=O)c1ccc(-c2ccc(F)cc2F)cc1` [ABD527, reference compound] displayed a Solubility in data set [1] of 40 µg/mL (≈ 103 µM). In turn, `O=S(=O)(Nc1ccc(CO)c(CO)c1)c1ccc(-c2ccc(F)cc2F)cc1` [ABD565, reference compound] displayed a Solubility in data set [1] of 30 µg/mL (≈ 74 µM).

Turning to `O=S(=O)(Nc1cccc(CO)c1)c1ccc(-c2ccc(Cl)cc2F)cc1` [ABD575, reference compound], the IC50 in the data set on J774 macrophages amounted to 400 nM. Besides, the Solubility in data set [1] was 70 µg/mL (≈ 179 µM).

In data set [1], `O=S(=O)(Nc1cc(CO)ccc1O)c1ccc(-c2ccc(F)cc2F)cc1` [ABD585, reference compound] had a Solubility of 70 µg/mL (≈ 179 µM).

Regarding `O=C(O)c1cccc(NS(=O)(=O)c2ccc(-c3ccc(Cl)cc3Cl)cc2)c1` [ABD612, 3-(2′,4′-Dichlorobiphenyl-4-ylsulfonamido)benzoic acid, reference compound], the T1/2 entry in data set [2] was “Stable”. The compound also displayed a solubility at 24 h in data set [1] (setting [3]) of 130 µg/mL (≈ 308 µM). `O=S(=O)(Nc1cccc(CCO)c1)c1ccc(-c2ccc(Cl)cc2Cl)cc1` [ABD625, reference compound] yielded a T1/2 in data set [2] of 13 min.

Compound `O=S(=O)(Nc1cccc(CCO)c1)c1ccc(-c2ccc(F)cc2F)cc1` [ABD628, 2′,4′-difluoro-biphenyl-4-sulfonic acid [3-(2-hydroxy-ethyl)-phenyl]-amide, reference compound] yielded a half-life at 3 μM in data set [2] of 18 min. For `O=S(=O)(Nc1cccc(CCO)c1)c1ccc(-c2ccc(Br)cc2)cc1` [ABD630, reference compound], the T1/2 in data set [2] stood at 43 min. The same compound showed a Solubility in data set [1] of 60 µg/mL (≈ 139 µM).

Turning to `CN(C)C(=O)c1cccc(NS(=O)(=O)c2ccc(-c3ccc(Cl)cc3Cl)cc2)c1` [ABD730, 3-(2′,4′-Dichlorobiphenyl-4-ylsulfonamido)-N,N-dimethylbenzamide], in data set [2], the half-life at 3 μM is 15 min. The same compound had a solubility at 24 h in data set [1] (setting [3]) of 20 µg/mL (≈ 44.5 µM). `CC(=O)c1cccc(NS(=O)(=O)c2ccc(-c3ccc(Cl)cc3Cl)cc2)c1` [ABD746, N-(3-Acetylphenyl)-2′,4′-dichlorobiphenyl-4-sulfonamide, reference compound] came in with a half-life at 3 μM in data set [2] of 11 min. This compound also yielded a solubility at 24 h in data set [1] (setting [3]) of 8 µg/mL (≈ 19 µM). Regarding `CN(C)CC(O)c1cccc(NS(=O)(=O)c2ccc(-c3ccc(F)cc3F)cc2)c1` (stereo not shown) [ABD784, N-(3-(2-(Dimethylamino)-1-hydroxyethyl)phenyl)-2′,4′-difluorobiphenyl-4-sulfonamide], the IC50 in the data set with J774 macrophages (Mus musculus) was found to be 1430 nM. On the same count and under the same terms, the figure for `CN[C@@H](CO)c1cccc(NS(=O)(=O)c2ccc(-c3ccc(F)cc3F)cc2)c1` [ABD810, (R)-2′,4′-Difluoro-N-(3-(2-hydroxy-1-(methylamino)ethyl)phenyl)biphenyl-4-sulfonamide] is 1020 nM; for `CN[C@H](CO)c1cccc(NS(=O)(=O)c2ccc(-c3ccc(F)cc3F)cc2)c1` [ABD811, (S)-2′,4′-Difluoro-N-(3-(2-hydroxy-1-(methylamino)ethyl)phenyl)biphenyl-4-sulfonamide] it is 350 nM. Same read-out and setting: for `N[C@@H](CO)c1cccc(NS(=O)(=O)c2ccc(-c3ccc(F)cc3F)cc2)c1` [ABD854, (R)—N-(3-(1-Amino-2-hydroxyethyl)phenyl)-2′,4′-difluorobiphenyl-4-sulfonamide] the value was 1350 nM. The same measure, in the same setting: the figure for `CC(N)(CO)c1cccc(NS(=O)(=O)c2ccc(-c3ccc(F)cc3F)cc2)c1` (stereo not shown) [ABD862, N-(3-(2-Amino-1-hydroxypropan-2-yl)phenyl)-2′,4′-difluorobiphenyl-4-sulfonamide] is 2430 nM.
